Measured values published in US9617302B2 (priority 2011, dated 2017).
pIC50: −log10 of the molar value. Where “and” joins values, the source holds several entries; their conditions need not be identical. Equal values may be shown once. Entries after “also recorded” stand apart in the source; their conditions may differ. No end group written: not given here.

How the values were obtained:
[1] = tested on: platelet-rich thrombus formation in irradiated mesenteric venules; experiment: Fluorescein sodium-induced platelet thrombus formation in mesenteric venules; type: in vivo, mice
[2] = Tail bleeding time; type: in vivo, mice; conditions: 5 min after injection
Experimental: Bleeding time was measured by a minor modified method described by Dejana et al (Dejana E, Villa S, de Gaetano G. Bleeding time in rats: a comparison of different experimental conditions. Thrombosis and haemostasis 1982 Aug. 24; 48(1):108-11). […] A sharp cut of 2 mm from tail tip of mouse was made 5 min after injection. The tail was immediately placed into a tube filled with saline, kept at 37° C. for measuring bleeding time.

[3] = tested on: washed platelets; type: cell-based, human; conditions: for pIC50: read-out: IC50, inhibition of the collagen-induced aggregation
[4] = Platelet count of whole blood after administration; type: in vivo, mice; conditions: 30 mg/kg, 5 min after administration; control 11.41±0.19
Experimental: Male ICR mice (25-30 g) were intravenously (IV) injected with PBS or hexapeptide (30 mg/kg), and then blood was collected at 5 min after injection. The platelet number of the whole blood sample was counted by a Sysmex cell counter (Chuo-Ku Kobe, Japan). PRP was prepared immediately by centrifugation at 200 g for 5 min. Platelet counts in PRP were adjusted to 3×10^8/ml and aggregation assay was performed in an aggregometer.

[5] = biological target: GPVI (Homo sapiens, UniProt Q9HCN6); type: binding
GPVI, sequence (Q9HCN6 21-339): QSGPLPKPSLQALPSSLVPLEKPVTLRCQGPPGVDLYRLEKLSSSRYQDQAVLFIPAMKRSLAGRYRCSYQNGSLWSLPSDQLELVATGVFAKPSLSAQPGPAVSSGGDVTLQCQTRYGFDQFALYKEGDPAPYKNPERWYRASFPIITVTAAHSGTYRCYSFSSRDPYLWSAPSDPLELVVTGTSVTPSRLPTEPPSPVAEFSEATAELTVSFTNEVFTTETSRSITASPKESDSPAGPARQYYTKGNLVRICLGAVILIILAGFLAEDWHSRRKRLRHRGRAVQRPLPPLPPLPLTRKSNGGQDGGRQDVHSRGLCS
GPVI, sequence (P30273 19-86, further chain): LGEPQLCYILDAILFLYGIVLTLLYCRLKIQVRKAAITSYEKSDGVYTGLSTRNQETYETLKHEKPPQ

[6] = tested on: [Ca2+]i elevation in platelets; experiment: Intracellular Ca2+ level in Fura-2-loaded platelets stimulated with collagen; type: cell-based; conditions: Fura-2/AM; various concentrations
Experimental: The concentration of intracellular free Ca^2+ was determined using a fluorescent probe, Fura-2/AM, according to the method of Pollock and Rink (Pollock W K, Rink T J. Thrombin and ionomycin can raise platelet cytosolic Ca2+ to micromolar levels by discharge of internal Ca2+ stores: studies using fura-2. Biochemical and biophysical research communications 1986 Aug. 29; 139(1):308-14). Fura-2/AM—loaded platelets were prepared as the washed platelets except washing with Ca^2+-free Tyrode solution and allowed platelets to uptake Fura-2/AM (5 μM) for 30 min in the first wash. The intracellular Ca^2+ level of Fura-2-loaded platelets (3×10^8/ml) in the presence of 1 mM of Ca^2+ was measured by the fluorescence change (excitation at 339 nm, emission at 500 nm) with a Hitachi fluorescence spectrophotometer.

[7] = tested on: platelet-rich plasma (PRP) prepared from mice; experiment: Ex vivo platelet aggregation study (PRP of treated mice, collagen); type: in vivo; conditions: 10 mg/kg; collagen 3 μg/ml
Experimental: […] The platelet number of the whole blood sample was counted by a Sysmex cell counter (Chuo-Ku Kobe, Japan). PRP was prepared immediately by centrifugation at 200 g for 5 min. Platelet counts in PRP were adjusted to 3×10^8/ml and aggregation assay was performed in an aggregometer.

CC(=O)Oc1ccccc1C(=O)O [aspirin, reference compound]
Occlusion time ([1]; 250 mg/kg, control (PBS) 111.1 ± 5.1 s): 298.7 ± 29.6 s | Occlusion time ([1]; 250 mg/kg, control (PBS) 111.1 ± 5.1 s, listed as Aspirin): 298.7 ± 29.6 s | Bleeding time ([2]; 250 mg/kg IV): 8.20 ± 0.91 min

CCCCS(=O)(=O)N[C@@H](Cc1ccc(OCCCCC2CCNCC2)cc1)C(=O)O [tirofiban]
Bleeding time ([2]; 0.4 mg/kg IV): 4.20 ± 1.20 min

C(dK)WM(dN)V [d-form Tro-α6]
IC50, inhibition of the collagen-induced aggregation [3]: (IC50: 6.82 ± 3.34 μg/ml | Inhibition of the collagen-induced aggregation (%) [3]: 89.44 ± 6.49% | pIC50 [3]: 5.06

CKAMNV [Tro-α6 W116A]
Inhibition of the collagen-induced aggregation (%) [3]: 12.28 ± 2.40% | Inhibitory activity on collagen-induced platelet aggregation (in words) [3]: decreased dramatically; also recorded: diminished

CKWANV [Tro-α6 M117A]
Inhibition of the collagen-induced aggregation (%) [3]: 52.91 ± 15.90%

CKWMNV [Tro-α6, CKWMNV]
Platelet count [4]: 11.18±0.30 ×10^8/ml

CWNKMV [Tro-α6 scramble]
Inhibitory activity on collagen-induced platelet aggregation (in words) [3]: little effect

GFCKWMNVAC [Tro-α10]
IC50, inhibition of the collagen-induced aggregation [3]: 93.75 ± 6.25 (IC50: 35.17 ± 11.00 | Inhibition of the collagen-induced aggregation (%) [3]: 60% and 93.75 ± 6.25 (IC50: 35.17 ± 11.00% | pIC50 [3]: 4.52 | Binding of anti-GPVI mAb (326E12) to platelets [5]: specifically inhibited | Collagen-evoked increase of [Ca2+]i [6]: inhibited by decapeptide in a concentration-dependent manner | % of inhibition, collagen-induced platelet aggregation ex vivo [7]: 55.87 ± 10.82 (n = 11) % | Occlusion time ([1]; 10 mg/kg, control (PBS) 153.0 ± 13.5 s): 294.5 ± 25.4 s | Occlusion time ([1]; 10 mg/kg, control (PBS) 153.0 ± 13.5 s, listed as Decapeptide): 294.5 ± 25.4 s

RKWVNY [Agg-α6]
Inhibition of the collagen-induced aggregation (%) [3]: 21.67 ± 9.33%
